# Laboratory results from patent US6040338A, “N,n-bis(sulfonyl)hydrazines useful as antineoplastic agents” (Yale University, priority 1997, dated 2000).
# Tests used:
# tumor = settings: in vivo; cited from earlier work
# host animals = settings: in vivo; cited from earlier work
# L1210 leukemia [1] = settings: single intraperitoneal dose; cited from earlier work
# proteinase K or serum = assay: Effect of proteinase K or serum on rate of decomposition/activation; assay type: in vitro ADME
# [2] = Initial rate of hydrolysis in aqueous media at pH 7.4 and 37° C.; assay type: physicochemical
# Description: For example, the initial rates of hydrolysis of 2-acetyl-1,2-bis(methylsulfonyl)-1-methylhydrazine (an acyl derivative shown in structural formula 5) and 1,2-bis(methylsulfonyl)-2-methoxycarbonyl-1-methylhydrazine (a carbamate compound shown in structural formula 6) were 0.3% and 0.007% per minute, respectively, at pH 7.4 and 37° C. [drawing 12]
# GSH/GST = assay: Relative rate of activation by GSH/GST in vitro; assay type: in vitro ADME; settings: 1 mM compound, GSH 1 mM, GST 400 μg/ml; compound 6 = 100
# Description: When R^3 is a methyl group, the rate of activation by GSH/GST is highly dependent upon the nature of the 2-alkoxy- or 2-aryloxycarbonyl moiety at the R^4 position.
# The rate of activation of 2-(2-bromoethoxy)carbonyl-1,2-bis(methylsulfonyl)-1-methylhydrazine (compound 8) was elevated approximately 18-fold in vitro by the presence of GSH (1 mM) and GST (400 μg/ml), compared to buffer alone.
# [3] = Activation by thiolysis (GSH); assay type: in vitro ADME
# Description: (§1) The rates of activation of compounds 10a-h were measured in 1 mM phosphate buffer (pH 7.4, 37° C.) alone, 1 mM phosphate buffer containing 5 mM GSH (pH 7.4, 37° C.), and in 1 mM phosphate buffer containing 5 mM GSH and 17.5 U/ml of GST (pH 7.4, 37° C.) (Table 3).
# GST = assay: Activation by GST-catalyzed thiolysis; assay type: in vitro ADME
# Description: as §1
# [4] = test system: CHO-K1/dhfr^- cells transfected with NADPH:cytochrome P450 reductase cDNA; assay: Colony-forming assay, CHO-K1/dhfr^- cells overexpressing NADPH:cytochrome P450 reductase; assay type: cell-based, Chinese hamster
# Description: The ability of compounds 10h, 11, 12, and 14 to exert preferential toxicity to hypoxic cells was evaluated using the EMT6 mammary carcinoma by methodology described previously (Rockwell, S., Keyes, S. R., and Sartorelli, A. C. Rad. Res. 116: 100-113 (1988); Keyes, S. R., Rockwell, S., and Sartorelli, A. C. Cancer Res. 45: 213-216 (1985)). Briefly, exponentially growing monolayers of EMT6 (or CHO-K1/dhfr clone) were exposed to a continuously flowing 95% N2 /5% CO2 humidified atmosphere for 2 h to produce radiobiologic hypoxia. Parallel flasks were maintained similarly in humidified 95% air/5% CO2. Without breaking the hypoxia, cells were exposed to various concentrations of the test agent for 1 hr. Cell survival was then measured by colony formation. […]
# (§2) The cytotoxicity of compound loh was evaluated in aerobic and hypoxic Chinese hamster ovary (CHO-K1/dhfr^-) cells transfected with and overexpressing cDNAs for NADPH:cytochrome P450 reductase (27-fold more than parental cells, FIG. 3) or DT-diaphorase (133-fold more than parental cells, FIG. 4), two reductases with the potential to activate compound 10h. […]
# (§3) Compound 12 was evaluated for its ability to exert preferential toxicity to hypoxic EMT6 cells relative to their aerobic counterparts. […]
# [5] = test system: EMT6 mammary carcinoma cells; assay: Colony-forming assay, EMT6 cells under hypoxic or aerobic conditions; assay type: cell-based, mouse; settings: 1 hr exposure
# Description: (§4) The ability of compounds 10h, 11, 12, and 14 to exert preferential toxicity to hypoxic cells was evaluated using the EMT6 mammary carcinoma by methodology described previously (Rockwell, S., Keyes, S. R., and Sartorelli, A. C. Rad. Res. 116: 100-113 (1988); Keyes, S. R., Rockwell, S., and Sartorelli, A. C. Cancer Res. 45: 213-216 (1985)). Briefly, exponentially growing monolayers of EMT6 (or CHO-K1/dhfr clone) were exposed to a continuously flowing 95% N2 /5% CO2 humidified atmosphere for 2 h to produce radiobiologic hypoxia. Parallel flasks were maintained similarly in humidified 95% air/5% CO2. Without breaking the hypoxia, cells were exposed to various concentrations of the test agent for 1 hr. Cell survival was then measured by colony formation.
# The cytotoxicity of compound 10h was evaluated against EMT6 mouse mammary carcinoma cells in vitro under aerobic and hypoxic conditions using the colony-forming assay described above. FIG. 1 depicts the survival of EMT6 cells exposed to various concentrations of compound 10h for 1 hr under hypoxic or aerobic conditions in vitro. Points are the geometric means of two or more independent determinations of surviving fractions. The SEMs are shown where n≥3 and where the error is larger than the point size. Open triangles represent aerobic data points and filled triangles represent hypoxic data points.
# Compound 12 was evaluated for its ability to exert preferential toxicity to hypoxic EMT6 cells relative to their aerobic counterparts. […] Points are geometric means of two or more independent determinations of surviving fractions. The SEMs are shown where n≥3 and where the error is larger than the point size. Open triangles are aerobic data points, and filled triangles are hypoxic data points. […] Points are means of duplicate determinations. Open triangles are parental-aerobic; filled triangles are parental-hypoxic; open circles are NADPH:cytochrome P450 reductase-transfected-aerobic; filled circles are NADPH:cytochrome P450 reductase-transfected-hypoxic.
# [6] = Activation by hydrolysis in phosphate buffer; assay type: physicochemical
# Description: as §1
# [7] = test system: CHO-K1/dhfr^- cells transfected with DT-diaphorase cDNA; assay: Colony-forming assay, CHO-K1/dhfr^- cells overexpressing DT-diaphorase; assay type: cell-based, Chinese hamster; settings: 133-fold overexpression versus parental; FIG. 4
# Description: as §4
# CHO-K1/dhfr cells were used to examine the role of the reductive enzymes NADPH:cytochrome P450 reductase and DT-diaphorase in the activation of compounds 10h and 12 in situ. […]
# as §2
# CHO-K1/dhfr^- cells = assay: Colony-forming assay, aerobic and hypoxic CHO-K1/dhfr^- cells; assay type: cell-based, Chinese hamster
# Description: as §4
# CHO-K1/dhfr cells were used to examine the role of the reductive enzymes NADPH:cytochrome P450 reductase and DT-diaphorase in the activation of compounds 10h and 12 in situ. Clones of CHO-K1/dhfr^- cells transfected with and overexpressing cDNAs for each of these enzymes were used for this purpose (Belcourt, M. F., Hodnick, W. F., Rockwell, S., and Sartorelli, A. C. Proc. Natl. Acad. Sci. USA 93: 456-460 (1996); Belcourt, M. F., Hodnick, W. F., Rockwell, S., and Sartorelli, A. C. Biochem. Pharmacol. 51: 1669-1678 (1996)).
# as §2, with “10h. In FIGS. 3 and 4, points are means of duplicate determinations.” for “10h.”
# as §3
# L1210 leukemia [8] = assay: Survival time and body weight of mice bearing the L1210 leukemia; assay type: in vivo, mice (CD2 F1); settings: Table 4; i.p. once daily for 6 days at optimum daily dose (10a 60, 10b 25, 10c 12.5, 10d-h 30 mg/kg)
# Description: The ascites cell form of leukemia L1210 was obtained from the Frederick Cancer Research Facility, Division of Cancer Treatment Tumor Repository of the National Cancer Institute, and was maintained by serial passage in tissue culture. Every 8 weeks, tumor cells were injected intraperitoneally into 5 donor CD2 F1 mice 8-10 weeks of age and were allowed to grow for 7 days. The peritoneal fluid was withdrawn, and the suspension was centrifuged for 5 min at 1600×g. The supernatant was decanted, and 10^5 cells/ml were seeded into 10 ml of RPMI 1640 medium supplemented with 10% fetal bovine serum and 1% L-glutamine (200 mM) and once again maintained in culture. To assay for antitumor activity, 0.1 ml of the cell suspension containing 10^5 leukemia cells was injected into each recipient mouse. […] Each drug was administered intraperitoneally as a solution in 100% dimethyl sulfoxide, in a volume not exceeding 25 μl. […] Mice were weighed during the course of the experiments, and the percentage change in body weight from onset to termination of therapy was used as an indication of drug toxicity. Determination of the sensitivity of neoplasms to these agents was based upon the prolongation of survival time afforded by the drug treatments.
# The antitumor activity of compounds 10a-h and 16 were assessed in mice bearing the L1210 leukemia. The results of these tests are summarized in Tables 4 and 5 which show the effects of 2-alkoxycarbonyl- and 2-aryloxycarbonyl-1,2-bis(methylsulfonyl)-1-(2-chloroethyl)hydrazines on the survival time of mice bearing the L1210 leukemia.
# In Table 4, the optimum daily dose was administered once per day for six consecutive days, beginning 24 hours after tumor implantation, with 5-10 mice being used per group. In Table 5, multiple dosages of compound 16 are indicated. "Av Δ wt" refers to the average percent change in body weight from onset to termination of therapy. "% T/C" refers to the average survival time of treated/control mice×100. Cures (60-day survivors) are listed separately and are not included in this calculation.
structure (smiles),measurement,setting,value
"CS(=O)(=O)NN(CCCl)S(C)(=O)=O [Compound 2, 1,2-bis(methylsulfonyl)-1-(2-chloroethyl)hydrazine]",active dosage range (in words),tumor,active only over a narrow dosage range
same,antitumor/antineoplastic activity (in words),tumor,most active compound of this class
same,host toxicity (in words),host animals,considerable host toxicity
same,cures of mice bearing the L1210 leukemia,L1210 leukemia [1],40%
"CC(=O)N(N(C)S(C)(=O)=O)S(C)(=O)=O [Compound 5, 2-acetyl-1,2-bis(methylsulfonyl)-1-methylhydrazine, reference compound]",enhancement of rate of activation by proteinase K or serum,proteinase K or serum; levels of proteinase K or serum,~10 fold
same,initial rate of hydrolysis,[2],0.3 % per minute
"COC(=O)N(N(C)S(C)(=O)=O)S(C)(=O)=O [Compound 6, 1,2-Bis(methylsulfonyl)-2-(methoxycarbonyl)-1-methylhydrazine]",Relative Activation Rate by GSH/GST,GSH/GST,100
same,increase of rate of decomposition by proteinase K or serum,proteinase K or serum; levels that enhanced activation of compound 5 almost 10-fold,not appreciably increased
same,initial rate of hydrolysis,[2],0.007 % per minute
"CS(=O)(=O)N(CCCl)N(C(=O)OCc1ccc([N+](=O)[O-])cc1)S(C)(=O)=O [Compound 10h, 1,2-Bis(methylsulfonyl)-1-(2-chloroethyl)-2-[(4-nitrobenzyloxy)carbonyl]hydrazine]",Calculated Activation Rate due to Thiolysis (5 mM GSH),"[3]; 1 mM phosphate buffer, 5 mM GSH, pH 7.4, 37° C.",0.06 nmol/mL/min
same,rate of thiolysis with GSH (in words),[3]; reacted with GSH,extremely slow rate of thiolysis
same,Calculated Activation Rate due to Catalyzed Thiolysis (5 mM GSH + 17.5 U/ml GST),"GST; 1 mM phosphate buffer, 5 mM GSH, 17.5 U/ml GST, pH 7.4, 37° C.",20.5 nmol/mL/min
same,rate of activation when thiolysis is catalyzed by GST (in words),GST; GSH + GST,relatively high rate of activation
same,sensitivity of cells overexpressing NADPH:cytochrome P450 reductase (in words),"[4]; 27-fold overexpression versus parental, FIG. 3",Increased sensitivity
same,toxicity to aerobic EMT6 cells (in words),"[5]; 40 μM, aerobic (FIG. 1)",relatively minor toxicity
same,log reduction at 40 µM,"[5]; Mus musculus, EMT6, 40 μM, hypoxic (FIG. 1), read-out: kill of hypoxic EMT6 cells",2
same,Calculated Activation Rate due to Hydrolysis,"[6]; 1 mM phosphate buffer, pH 7.4, 37° C.",not detected
same,hydrolysis in phosphate buffer (in words),"[6]; phosphate buffer, physiological pH",little or no hydrolysis
same,kill of hypoxic or oxygenated cells on overexpression of DT-diaphorase (in words),[7],did not result in an increase in the kill of either hypoxic or oxygenated cells
same,sensitivity of CHO-K1/dhfr^- cells compared with EMT6 cells (in words),CHO-K1/dhfr^- cells; FIGS. 3 and 4,less sensitive
same,sensitivity of hypoxic CHO-K1/dhfr^- cells compared with aerobic counterparts (in words),"CHO-K1/dhfr^- cells; hypoxic versus aerobic, FIGS. 3 and 4",more sensitive
same,Av Δ wt (average percent change in body weight from onset to termination of therapy),L1210 leukemia [8],-8.6%
"COc1cc(COC(=O)N(N(CCCl)S(C)(=O)=O)S(C)(=O)=O)c([N+](=O)[O-])cc1OC [Compound 12, 1,2-Bis(methylsulfonyl)-1-(2-chloroethyl)-2-[(4,5-dimethoxy-2-nitrobenzyloxy)carbonyl]hydrazine]",cytotoxicity to hypoxic versus aerobic cells overexpressing NADPH-cytochrome P450 reductase,"[4]; 1 hr, hypoxic versus aerobic (FIG. 6)",> 3000 times
same,toxicity to aerobic EMT6 cells (in words),"[5]; 50 μM, aerobic (FIG. 5)",relatively minor toxicity
same,log reduction at 50 µM,"[5]; Mus musculus, EMT6, 50 μM, hypoxic (FIG. 5), read-out: kill of hypoxic EMT6 cells",> 3
same,cytotoxicity to aerobic and hypoxic CHO-K1/dhfr^- cells (in words),CHO-K1/dhfr^- cells; 1 hr (FIG. 6),results similar to those described for compound 10h
